# Test results: ChEMBL document CHEMBL1152339, “Use of the in vivo hollow fiber assay in natural products anticancer drug discovery” (J Nat Prod, 2009)
# What was measured:
# Format in all cases: functional
# KB [1] = assay: Growth inhibition of human KB cells xenografted in NCr nu/nu mouse at 25 to 100 mg/kg, ip once daily administered from day 3 to 6 after implantation measured on day 7 by MTT-based hollow-fiber test; settings: route intraperitoneal
# KB [2] = assay: Growth inhibition of human KB cells xenografted in NCr nu/nu mouse at 25 to 100 mg/kg, sc once daily administered from day 3 to 6 after implantation measured on day 7 by MTT-based hollow-fiber test; settings: route subcutaneous
# LNCaP [3] = assay: Growth inhibition of human LNCAP cells xenografted in NCr nu/nu mouse at 25 to 100 mg/kg, ip once daily administered from day 3 to 6 after implantation measured on day 7 by MTT-based hollow-fiber test; settings: route intraperitoneal
# LNCaP [4] = assay: Growth inhibition of human LNCAP cells xenografted in NCr nu/nu mouse at 25 to 100 mg/kg, sc once daily administered from day 3 to 6 after implantation measured on day 7 by MTT-based hollow-fiber test; settings: route subcutaneous
# SW626 [5] = assay: Growth inhibition of human SW626 cells xenografted in NCr nu/nu mouse at 25 to 100 mg/kg, ip once daily administered from day 3 to 6 after implantation measured on day 7 by MTT-based hollow-fiber test; settings: dose mg/kg 3-6; route intraperitoneal
# SW626 [6] = assay: Growth inhibition of human SW626 cells xenografted in NCr nu/nu mouse at 25 to 100 mg/kg, sc once daily administered from day 3 to 6 after implantation measured on day 7 by MTT-based hollow-fiber test; settings: dose mg/kg 3-6; route subcutaneous
# SK-MEL-2 [7] = assay: Growth inhibition of human SK-MEL-2 cells xenografted in NCr nu/nu mouse at 25 to 100 mg/kg, ip once daily administered from day 3 to 6 after implantation measured on day 7 by MTT-based hollow-fiber test; settings: dose mg/kg 3-6; route intraperitoneal
# SK-MEL-2 [8] = assay: Growth inhibition of human SK-MEL-2 cells xenografted in NCr nu/nu mouse at 25 to 100 mg/kg, sc once daily administered from day 3 to 6 after implantation measured on day 7 by MTT-based hollow-fiber test; settings: dose mg/kg 3-6; route subcutaneous
# MCF7 [9] = assay: Growth inhibition of human MCF7 cells xenografted in NCr nu/nu mouse at 25 to 100 mg/kg, ip once daily administered from day 3 to 6 after implantation measured on day 7 by MTT-based hollow-fiber test; settings: dose mg/kg 3-6; route intraperitoneal
# MCF7 [10] = assay: Growth inhibition of human MCF7 cells xenografted in NCr nu/nu mouse at 25 to 100 mg/kg, sc once daily administered from day 3 to 6 after implantation measured on day 7 by MTT-based hollow-fiber test; settings: dose mg/kg 3-6; route subcutaneous
# SW626 [11] = assay: Growth inhibition of human SW626 cells xenografted in ip dosed NCr nu/nu mouse administered once daily from day 3 to 6 after implantation measured on day 7 by MTT-based hollow-fiber test
# MCF7 [12] = assay: Growth inhibition of human MCF7 cells xenografted in ip dosed NCr nu/nu mouse administered once daily from day 3 to 6 after implantation measured on day 7 by MTT-based hollow-fiber test
# LNCaP [13] = assay: Growth inhibition of human LNCAP cells xenografted in ip dosed NCr nu/nu mouse administered once daily from day 3 to 6 after implantation measured on day 7 by MTT-based hollow-fiber test
# SK-MEL-2 [14] = assay: Growth inhibition of human SK-MEL-2 cells xenografted in ip dosed NCr nu/nu mouse administered once daily from day 3 to 6 after implantation measured on day 7 by MTT-based hollow-fiber test
# MCF7 [15] = assay: Growth inhibition of human MCF7 cells xenografted in NCr nu/nu mouse at 6.25 to 50 mg/kg, sc once daily administered from day 3 to 6 after implantation measured on day 7 by MTT-based hollow-fiber test; settings: dose mg/kg 3-6; route subcutaneous
# MCF7 [16] = assay: Growth inhibition of human MCF7 cells xenografted in NCr nu/nu mouse at 6.25 to 50 mg/kg, ip once daily administered from day 3 to 6 after implantation measured on day 7 by MTT-based hollow-fiber test; settings: dose mg/kg 3-6; route intraperitoneal
# KB [17] = assay: Growth inhibition of human KB cells xenografted in NCr nu/nu mouse at 0.195 to 1.56 mg/kg, ip once daily administered from day 3 to 6 after implantation measured on day 7 by MTT-based hollow-fiber test; settings: route intraperitoneal
# KB [18] = assay: Growth inhibition of human KB cells xenografted in NCr nu/nu mouse at 0.195 to 1.56 mg/kg, sc once daily administered from day 3 to 6 after implantation measured on day 7 by MTT-based hollow-fiber test; settings: route subcutaneous
# LNCaP [19] = assay: Growth inhibition of human LNCAP cells xenografted in NCr nu/nu mouse at 0.195 to 1.56 mg/kg, ip once daily administered from day 3 to 6 after implantation measured on day 7 by MTT-based hollow-fiber test; settings: route intraperitoneal
# LNCaP [20] = assay: Growth inhibition of human LNCAP cells xenografted in NCr nu/nu mouse at 0.195 to 1.56 mg/kg, sc once daily administered from day 3 to 6 after implantation measured on day 7 by MTT-based hollow-fiber test; settings: route subcutaneous
# Col2 [21] = assay: Growth inhibition of human Col2 cells xenografted in NCr nu/nu mouse at 0.195 to 1.56 mg/kg, ip once daily administered from day 3 to 6 after implantation measured on day 7 by MTT-based hollow-fiber test; settings: route intraperitoneal
# Col2 [22] = assay: Growth inhibition of human Col2 cells xenografted in NCr nu/nu mouse at 0.195 to 1.56 mg/kg, sc once daily administered from day 3 to 6 after implantation measured on day 7 by MTT-based hollow-fiber test; settings: route subcutaneous
# Col2 [23] = assay: Growth inhibition of human Col2 cells xenografted in ip dosed NCr nu/nu mouse administered once daily from day 3 to 6 after implantation measured on day 7 by MTT-based hollow-fiber test
SMILES,growth inhibition (GI) (KB [1]),growth inhibition (GI) (KB [2]),growth inhibition (GI) (LNCaP [3]),growth inhibition (GI) (LNCaP [4]),ED50 (LNCaP [13]),growth inhibition (GI) (KB [17]),growth inhibition (GI) (KB [18]),growth inhibition (GI) (LNCaP [19]),growth inhibition (GI) (LNCaP [20]),growth inhibition (GI) (Col2 [21]),growth inhibition (GI) (Col2 [22]),ED50 (Col2 [23]),other results
CO[C@@]12CC[C@@]3(C)[C@@](CC[C@@H]4[C@@]5(C)CCC[C@]43OC5=O)(C1)C(=O)C2=O,21%,6%,50%,0%,1200 nM,,,,,,,,growth inhibition (GI) (SW626 [5]): 0%; growth inhibition (GI) (SW626 [6]): 16%; growth inhibition (GI) (SK-MEL-2 [7]): 15%; growth inhibition (GI) (SK-MEL-2 [8]): 11%; growth inhibition (GI) (MCF7 [9]): 34%; growth inhibition (GI) (MCF7 [10]): 0%; ED50 (SW626 [11]): 580 nM; ED50 (MCF7 [12]): 870 nM; ED50 (SK-MEL-2 [14]): 1200 nM
C[C@]12CC[C@]3(O)C[C@@]1(CC[C@@H]1[C@@]4(C)CCC[C@]12OC4=O)C(=O)C3=O,0%,0%,0%,0%,4500 nM,,,,,,,,
CCCCCCCCCCCCC[C@@H]1C[C@@H](O)C[C@]2(CCC3(C=CC(=O)C=C3)O2)O1 [ACULEATIN A],,,,,,,,,,,,,growth inhibition (GI) (MCF7 [15]): 0%; growth inhibition (GI) (MCF7 [16]): 10%
CC(=O)O[C@@H]1O[C@@H]([C@H]2c3cccc(O)c3C(=O)c3c(O)cc(C)cc32)[C@H](O)[C@@H](O)[C@H]1O [ALVARADOIN E],,,,,140 nM,40%,5%,60%,10%,31%,6%,230 nM,
CC(=O)O[C@H]1O[C@H]([C@@H]2c3cccc(O)c3C(=O)c3c(O)cc(C)cc32)[C@H](O)[C@@H](O)[C@H]1O [ALVARADOIN F],,,,,120 nM,32%,2%,59%,3%,21%,1%,230 nM,
